Measured values taken from US9271995B2, “Agent for ameliorating brain hypofunction” (The University of Tokyo, priority 2008, dated 2016).

How the values were obtained:
Assay type in all cases: in vivo
[1] = tested on: old mice (male C57BL6/Njcl); test: Place recognition task; settings: ManNAc 5 mg/ml in tap water ad libitum, paired t-test, p<0.05
Description: (§1) • 1) Object and place recognition task experiments were performed on male C57BL6/Njcl mice in three groups. Outline of the experiments is shown in FIG. 1. • Old control group: Old mice (reared from 47 to 66 weeks of age, n=10) were allowed to drink tap water ad libitum. • Old ManNAc recipient group: Old mice (reared from 47 to 66 weeks of age, n=10) were allowed to drink tap water with ManNAc (5 mg/ml) dissolved therein ad libitum. • Young control group: Young mice (reared from 8 to 18 weeks of age, n=10) were allowed to drink tap water ad libitum. • 2) Experimental procedures: An open field test was performed to examine the tendency toward anxiety and locomotor activity, and this was followed by place recognition task and object recognition task in accordance with conventional methods (see FIG. 2). • 3) Experimental results (FIGS. 3 and 4)
(§2) When ManNAc was administered to the old mice (FIG. 4C), the exploratory behavior times for the new place (paired t-test, p<0.05) and the new object (paired t-test, p<0.001) normalized in all tasks; a capability of recognition memory equivalent to that of the young mice was shown.

middle-aged mice [2] = test: Telemeter monitoring of heart rate, body temperature and locomotor activity; settings: administration of ManNAc
Excerpt: (§3) Mice are awake during active time in the dark phase and conversely cease their activities and have a sleep in the light phase. It is known that in aged mice, the wake-sleep rhythm is deranged to the extent of lighter sleep in the light phase and decreased activities during wake time in the dark phase. It is also known that the aging-related derangement of wake and sleep is related to hypothalamic activity and accompanied by elevated body temperatures and increased heart rates. Because these symptoms are similar to those in human patients in their middle age to senescence who complain of dissatisfaction with sleep, they serve as an appropriate model for examining the influences on sleep.
(§4) Middle-aged mice [three reared from 43 to 66 weeks of age under light-dark cycle conditions (12-hour light phase-12-hour dark phase)] were allowed to drink ManNAc solution (5 mg/ml tap water) ad libitum. During 1 week before and after the free access to the solution, […], body temperature, and locomotor activity were monitored over time using a telemeter. Also analyzed were electroencephalograms recorded during wake and sleep times in both the ManNAc non-ingestion period and the free-access period. To measure electroencephalograms and electromyograms, a mouse electroencephalogram transmitter (F20EET, Data Sciences) was implanted in each animal under anesthesia (pentobarbital, 30 mg/kg, i.v.), and electroencephalograms, electromyograms, body temperature, and locomotor activity were continuously recorded using ART (Data Sciences Company). The electroencephalograms thus obtained were analyzed using NeuroScore (Data Sciences Company), and the sleep events were classified into REM sleep and slow wave sleep. The lengths of each sleep stage were totaled and compared among the mice before and after administration and young mice.

[3] = tested on: old mice (male C57BL6/Njcl); test: Open field test; settings: ManNAc 5 mg/ml in tap water ad libitum
Description: as §1
Open field test (FIG. 3): Moving distance in an unfamiliar planar space was compared between the old mice and the young mice.

[4] = tested on: old mice (male C57BL6/Njcl); test: Object recognition task; settings: ManNAc 5 mg/ml in tap water ad libitum, paired t-test, p<0.001
Description: as §1, §2

middle-aged mice [5] = test: Sleep analysis by electroencephalograms and electromyograms (aging-related sleep disorders)
Excerpt: as §3, §4

[6] = middle-aged mice receiving ManNAc, began to be observed on day 2 after administration

## CC(=O)N[C@@H]1C(O)O[C@H](CO)[C@@H](O)[C@@H]1O (stereo partly drawn) [ManNAc, N-acetyl-D-mannosamine]
[1]
  exploratory behavior time for the new place: normalized
middle-aged mice [2]
  change in heart rate due to behavioral change (difference between the light and dark phases): became evident
  difference in locomotor activity between the light and dark phases: increased
middle-aged mice [2]; non-active period
  body temperature: declined
[3]
  total motor activity: without influencing total motor activity
[3]; vs old control
  rise in the tendency toward anxiety (time of stay in the central portion): tended to decrease slightly, but the difference was statistically insignificant
[4]
  exploratory behavior time for the new object: normalized
middle-aged mice [5]; extension of REM sleep time, sleep-wake rhythm
  day after the start of administration on which the effect on sleep begins to be evident: 2 days
middle-aged mice [5]; [6]
  REM sleep: increased
  slow wave sleep: decreased
  wake time: remarkably increased
middle-aged mice [5]; middle-aged mice, 4 days after administration, ManNAc 5 mg/ml tap water ad libitum (before administration 1.8)
  Wake, daily percentage: 2.2%
middle-aged mice [5]; middle-aged mice, 4 days after administration, ManNAc 5 mg/ml tap water ad libitum (before administration 5.4)
  REM sleep, daily percentage: 10.0%
middle-aged mice [5]; middle-aged mice, 4 days after administration, ManNAc 5 mg/ml tap water ad libitum (before administration 12.7)
  Wake (major), daily percentage: 15.3%
middle-aged mice [5]; middle-aged mice, 4 days after administration, ManNAc 5 mg/ml tap water ad libitum (before administration 80.0)
  Slow wave sleep, daily percentage: 72.5%
